From publication PMC10026756 come the findings set out here.

Like-named read-outs stand apart in the source and are kept apart here.

Data set [1] has as its system HCT-116 colon cancer cell line. Put plainly: Cell cycle analysis. The class given is cell-based. The note with it: HCT-116, treated at IC50 concentration, 24 h. How it is done: Aiming to further study the mechanism of the target compounds, the cell cycle arrest experiment of 4b and 4e blocking the cell cycle of HCT-116 was carried out using Annexin V-FITC/PI staining (Table 4 and Figure 8).[56]
(§1) The effects of both 4b and 4e on progress of cell cycle and induction of apoptosis in […] cells were carried out using Annexin V-FITC Apoptosis Detection Kit (BioVision Research Products, Mountain View, CA) (see Supplementary Data)[8].

Data set [2] can be described thus: MTT assay, in vitro toxicity against normal cells. It is filed as cell-based. The note with it: human, WI38 normal cells; MTT assay, WI38; read-out: IC50, in vitro cytotoxicity against WI38 normal cell line. How it is done: (§2) To scrutinise the safety of target compounds on normal cells, compounds 4b and 4e were selected to evaluate their cytotoxic activity against WI38 normal cell line (Table 2).
(§3) To scrutinise the cytotoxicity of the target compounds on colorectal cancer and normal cells, MTT assay was carried out against HCT-116 and WI38 cell lines, respectively.

In the next data set the test system is HCT-116 cells. In words: Apoptosis assay, Annexin V-FITC/PI staining. It is filed as cell-based. Particulars: HCT-116, treated at IC50 concentration, 24 h. The method, then:
Compared to the control group, the number of both early and late apoptotic cells of target compounds 4b and 4e was increased.
as §1

In data set [3] the test system is HCT-116 colon cancer cell line. Put plainly: MTT assay, in vitro cytotoxicity against HCT-116. It is filed as cell-based. Particulars: read-out: IC50, in vitro cytotoxicity against HCT116 cell line. How it is done:
The target compounds were evaluated for their anticancer activity against HCT-116 colon cancer cell line in which both c-Met and VEGFR-2 are overexpressed.[54]^,[55] […] The half maximal inhibitory concentration (IC50) was calculated for each compound (Table 1).
as §3
In general terms: Tetrazolium dyes change colour on reduction, which living cells bring about.

The next data set has as its target c-Met (Homo sapiens, UniProt P08581). Put plainly: In vitro c-Met tyrosine kinase inhibition assay.
The next data set concerns the target VEGFR-2 (Homo sapiens, UniProt P35968). In words: In vitro VEGFR-2 tyrosine kinase inhibition assay (BPS KDR Assay Kit).
A further data set deals with WI38 normal cell line. Put plainly: MTT assay, in vitro toxicity against normal cells. It is filed as cell-based. Particulars: HCT-116 versus WI38. How it is done:
as §2, §3

[4] abbreviates: Homo sapiens, HCT-116, MTT assay.

As a reminder, the IC50 is the concentration that gives 50% inhibition. In general, melting point refers to the temperature, or range, at which the solid turns liquid.

Chain of c-Met (P08581 25-1390): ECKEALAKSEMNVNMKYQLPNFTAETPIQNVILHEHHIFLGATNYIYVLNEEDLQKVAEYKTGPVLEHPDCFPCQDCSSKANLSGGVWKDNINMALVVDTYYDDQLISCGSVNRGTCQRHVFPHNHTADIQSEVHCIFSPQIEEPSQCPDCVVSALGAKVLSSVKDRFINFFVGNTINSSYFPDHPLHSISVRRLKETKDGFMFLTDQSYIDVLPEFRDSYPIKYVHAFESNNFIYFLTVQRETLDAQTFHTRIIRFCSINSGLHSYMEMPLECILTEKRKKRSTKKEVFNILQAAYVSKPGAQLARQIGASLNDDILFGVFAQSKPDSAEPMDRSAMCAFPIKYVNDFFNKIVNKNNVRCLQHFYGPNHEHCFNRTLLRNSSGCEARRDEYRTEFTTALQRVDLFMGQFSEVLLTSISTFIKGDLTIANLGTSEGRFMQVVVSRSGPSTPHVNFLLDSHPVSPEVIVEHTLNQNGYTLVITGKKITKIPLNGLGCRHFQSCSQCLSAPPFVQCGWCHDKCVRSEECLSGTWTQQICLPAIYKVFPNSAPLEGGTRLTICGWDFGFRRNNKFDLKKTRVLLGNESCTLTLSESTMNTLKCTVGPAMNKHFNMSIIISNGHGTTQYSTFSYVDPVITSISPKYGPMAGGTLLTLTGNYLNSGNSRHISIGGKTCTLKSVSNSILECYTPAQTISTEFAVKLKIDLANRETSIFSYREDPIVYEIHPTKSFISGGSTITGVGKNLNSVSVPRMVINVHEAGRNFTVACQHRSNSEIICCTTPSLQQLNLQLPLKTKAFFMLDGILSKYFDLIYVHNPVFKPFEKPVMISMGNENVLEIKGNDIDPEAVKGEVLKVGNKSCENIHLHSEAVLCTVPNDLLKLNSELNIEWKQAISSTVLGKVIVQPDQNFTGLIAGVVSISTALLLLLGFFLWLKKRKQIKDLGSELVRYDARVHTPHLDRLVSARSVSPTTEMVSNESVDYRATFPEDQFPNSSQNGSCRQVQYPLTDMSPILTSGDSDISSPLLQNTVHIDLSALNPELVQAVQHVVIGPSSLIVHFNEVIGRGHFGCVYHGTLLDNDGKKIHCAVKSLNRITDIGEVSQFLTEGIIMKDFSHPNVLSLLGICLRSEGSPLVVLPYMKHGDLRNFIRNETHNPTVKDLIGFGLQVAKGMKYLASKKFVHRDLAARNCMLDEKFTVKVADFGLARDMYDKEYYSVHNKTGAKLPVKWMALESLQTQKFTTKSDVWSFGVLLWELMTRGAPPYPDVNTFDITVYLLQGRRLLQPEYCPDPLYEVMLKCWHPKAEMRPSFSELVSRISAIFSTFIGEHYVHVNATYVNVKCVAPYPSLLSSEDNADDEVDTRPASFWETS
Chain of VEGFR-2 (P35968 20-1356): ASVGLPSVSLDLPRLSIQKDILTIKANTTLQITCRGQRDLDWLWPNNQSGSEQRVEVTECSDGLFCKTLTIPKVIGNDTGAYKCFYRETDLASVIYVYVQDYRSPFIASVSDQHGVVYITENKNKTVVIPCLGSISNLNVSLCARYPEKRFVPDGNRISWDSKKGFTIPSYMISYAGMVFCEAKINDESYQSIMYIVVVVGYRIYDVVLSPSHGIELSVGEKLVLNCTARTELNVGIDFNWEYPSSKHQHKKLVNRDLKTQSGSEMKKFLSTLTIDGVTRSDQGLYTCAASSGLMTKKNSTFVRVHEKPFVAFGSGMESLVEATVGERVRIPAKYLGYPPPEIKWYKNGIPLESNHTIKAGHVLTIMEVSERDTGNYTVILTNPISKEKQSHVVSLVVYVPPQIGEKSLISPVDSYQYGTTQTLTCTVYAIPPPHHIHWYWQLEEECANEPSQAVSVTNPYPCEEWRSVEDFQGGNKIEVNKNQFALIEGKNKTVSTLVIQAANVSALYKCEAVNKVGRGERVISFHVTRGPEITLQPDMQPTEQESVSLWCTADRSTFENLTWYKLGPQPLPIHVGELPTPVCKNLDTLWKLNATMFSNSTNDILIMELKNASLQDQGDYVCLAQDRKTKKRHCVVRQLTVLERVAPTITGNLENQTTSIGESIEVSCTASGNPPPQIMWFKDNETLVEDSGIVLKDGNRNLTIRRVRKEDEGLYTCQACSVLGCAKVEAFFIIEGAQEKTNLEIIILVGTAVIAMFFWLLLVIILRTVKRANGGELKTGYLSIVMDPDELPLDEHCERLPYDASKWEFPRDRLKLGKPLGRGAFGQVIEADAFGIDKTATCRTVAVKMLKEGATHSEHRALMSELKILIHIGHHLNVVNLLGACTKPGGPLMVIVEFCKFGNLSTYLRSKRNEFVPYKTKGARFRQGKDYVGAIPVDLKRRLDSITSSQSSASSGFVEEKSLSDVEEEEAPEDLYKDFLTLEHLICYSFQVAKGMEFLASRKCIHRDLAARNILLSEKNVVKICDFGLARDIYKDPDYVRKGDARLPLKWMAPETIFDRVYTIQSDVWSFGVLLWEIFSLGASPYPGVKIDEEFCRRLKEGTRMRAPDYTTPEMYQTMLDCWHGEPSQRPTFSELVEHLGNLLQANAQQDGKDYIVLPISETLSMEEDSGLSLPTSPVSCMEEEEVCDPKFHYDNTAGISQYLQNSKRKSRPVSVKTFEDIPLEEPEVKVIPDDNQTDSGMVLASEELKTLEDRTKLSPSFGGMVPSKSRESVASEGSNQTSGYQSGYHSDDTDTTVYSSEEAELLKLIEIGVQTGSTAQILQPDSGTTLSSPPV

`COc1cc2nccc(Oc3ccc(NC(=O)C4(C(=O)Nc5ccc(F)cc5)CC4)cc3)c2cc1OC` [Cabozantinib, reference compound]: in data set [1], the “%G0–G1” value was determined as 43.12%, the “%G2/M” value amounted to 24.72% and the “%S” value was found to be 32.16%. For the same compound, the IC50 in data set [2] is 44.7 ± 2.65 µM. Besides, in the data set with HCT-116 cells, the “%Necrosis” value came to 3.63%, the “Apoptosis %Early” value stood at 12.52%, the “Apoptosis %Late” value was found to be 19.61% and the “Apoptosis %Total” value stood at 32.13%. In data set [3] (setting [4]), the IC50 was found to be 16.4 ± 0.86 µM.

Take `O=C(Cn1c(=O)[nH]c2ccccc2c1=O)Nc1ccccc1` [Compound 2a, 2-(2,4-Dioxo-1,4-dihydroquinazolin-3(2H)-yl)-N-phenylacetamide]: the IC50 in data set [3] (setting [4]) is 15.1 ± 0.8 µM.

In the case of `O=C(Cn1c(=O)[nH]c2ccccc2c1=O)NCc1ccccc1` [Compound 2b, N-Benzyl-2-(2,4-dioxo-1,4-dihydroquinazolin-3(2H)-yl)acetamide], the melting point was 298 to 299 °C. Also, the IC50 in data set [3] (setting [4]) turned out to be 16 ± 0.85 µM.

As to `O=C(Cn1c(=O)[nH]c2ccccc2c1=O)NC1CCCCC1` [Compound 2c, N-Cyclohexyl-2-(2,4-dioxo-1,4-dihydroquinazolin-3(2H)-yl)acetamide], the IC50 against c-Met came to 0.084 ± 0.004 µM; in data set [3] (setting [4]), 4.69 ± 0.25 µM; on VEGFR-2 it was 0.052 ± 0.002 µM. Also, the c-Met %inh on c-Met (conc 0.01 (unit not given)) was 27.36%; at c-Met (conc 0.1 (unit not given)) it was 55.94%; on c-Met (conc 1 (unit not given)), 73.28%; on c-Met (conc 10 (unit not given)), 92.28%. In addition, the VEGFR-2 %inh on VEGFR-2 (conc 0.01 (unit not given)) was 35.32%; at VEGFR-2 (conc 0.1 (unit not given)), 56.18%; at VEGFR-2 (conc 1 (unit not given)), 76.46%; at VEGFR-2 (conc 10 (unit not given)), 88.96%.

The compound `CN(C)C(=O)Cn1c(=O)[nH]c2ccccc2c1=O` [Compound 2d, 2-(2,4-Dioxo-1,4-dihydroquinazolin-3(2H)-yl)-N,N-dimethylacetamide] returned a melting point of 218 to 220 °C. Moreover, the IC50 in data set [3] (setting [4]) came out at 47.5 ± 2.51 µM.

As to `O=C(Cn1c(=O)[nH]c2ccccc2c1=O)N1CCCCC1` [Compound 2e, 3-(2-Oxo-2-(piperidin-1-yl)ethyl)quinazoline-2,4(1H,3H)-dione], the melting point came to 204 °C. Moreover, the IC50 in data set [3] (setting [4]) turned out to be 38 ± 2.01 µM.

Turning to `O=C(Cn1c(=O)[nH]c2ccccc2c1=O)N1CCOCC1` [Compound 2f, 3-(2-Morpholino-2-oxoethyl)quinazoline-2,4(1H,3H)-dione], the melting point lay in the range of 254 to 255 °C. Also, the IC50 against c-Met amounted to 0.161 ± 0.007 µM. In addition, the c-Met %inh on c-Met (conc 0.01 (unit not given)) is recorded as 22.84%. Further, the c-Met %inh on c-Met (conc 0.1 (unit not given)) was 44.08%. Moreover, the c-Met %inh at c-Met (conc 1 (unit not given)) was 70.59%. In addition, on c-Met (conc 10 (unit not given)), the c-Met %inh is 88.98%. Further, in data set [3] (setting [4]), the IC50 is 5.4 ± 0.29 µM. The compound further had an IC50 at VEGFR-2 of 0.21 ± 0.009 µM. The same compound had a VEGFR-2 %inh on VEGFR-2 (conc 0.01 (unit not given)) of 18.54%. The compound further came in with a VEGFR-2 %inh on VEGFR-2 (conc 0.1 (unit not given)) of 43.39%. In addition, the VEGFR-2 %inh on VEGFR-2 (conc 1 (unit not given)) stood at 68.26%. Besides, the VEGFR-2 %inh on VEGFR-2 (conc 10 (unit not given)) is 85.96%.

Take `CCOC(=O)CNC(=O)Cn1c(=O)[nH]c2ccccc2c1=O` [Compound 2g, Ethyl [2-(2,4-dioxo-1,4-dihydroquinazolin-3(2H)-yl)acetyl]glycinate]: the IC50 in data set [3] (setting [4]) was 12.5 ± 0.66 µM.

Compound `NNC(=O)CNC(=O)Cn1c(=O)[nH]c2ccccc2c1=O` [Compound 3, 2-(2,4-Dioxo-1,4-dihydroquinazolin-3(2H)-yl)-N-(2-hydrazineyl-2-oxo-ethyl)acetamide] had a melting point of 296 to 298 °C. Also, in data set [3] (setting [4]), the IC50 was 24.3 ± 1.28 µM.

`O=C(Cn1c(=O)[nH]c2ccccc2c1=O)NCC(=O)N/N=C/c1ccccc1` [Compound 4a, (E)-N-[2-(2-Benzylidenehydrazineyl)-2-oxoethyl]-2-(2,4-dioxo-1,4-dihy-droquinazolin-3(2H)-yl)acetamide] yielded a melting point of 325 °C. For the same compound, the IC50 in data set [3] (setting [4]) amounted to 36.9 ± 1.95 µM.

`O=C(Cn1c(=O)[nH]c2ccccc2c1=O)NCC(=O)N/N=C/c1ccc([N+](=O)[O-])cc1` [Compound 4b, (E)-2-(2,4-Dioxo-1,4-dihydroquinazolin-3(2H)-yl)-N-[2-(2-[4-nitrobenz-ylidene]hydrazineyl)-2-oxoethyl]acetamide]: in data set [1], the “%G0–G1” value is 39.59%. For the same compound, in data set [1], the “%G2/M” value turned out to be 9.34%. The “%S” value in data set [1] is 51.07%. Also, the IC50 was 0.063 ± 0.003 µM against c-Met; 18.4 ± 1.09 µM in data set [2]; < 1 µM in data set [3] (setting [4]); 0.734 ± 0.04 µM in data set [3] (MTT assay); 0.035 ± 0.002 µM against VEGFR-2. For the same compound, the c-Met %inh on c-Met (conc 0.01 (unit not given)) came out at 27.49%; on c-Met (conc 0.1 (unit not given)), 58.65%; on c-Met (conc 1 (unit not given)) it was 82.51%; on c-Met (conc 10 (unit not given)), 93.15%. Moreover, the “cytotoxic activity against HCT-116 colon cancer cells, times more than WI38 normal cells” value in the data set on WI38 normal cell line came out at 25 times. The “%Necrosis” value with HCT-116 cells is 4.53%. Besides, in the data set on HCT-116 cells, the “Apoptosis %Early” value was 15.28%. Besides, in the data set on HCT-116 cells, the “Apoptosis %Late” value is 26.41%. The “Apoptosis %Total” value in the data set on HCT-116 cells came out at 41.69%. Further, the VEGFR-2 %inh was found to be 38.24% on VEGFR-2 (conc 0.01 (unit not given)), 60.12% on VEGFR-2 (conc 0.1 (unit not given)), 78.48% on VEGFR-2 (conc 1 (unit not given)) and 90.09% on VEGFR-2 (conc 10 (unit not given)).

In turn, `COc1ccc(/C=N/NC(=O)CNC(=O)Cn2c(=O)[nH]c3ccccc3c2=O)cc1` [Compound 4c, (E)-2-(2,4-Dioxo-1,4-dihydroquinazolin-3(2H)-yl)-N-[2-(2-[4-methoxy-benzylidene]hydrazineyl)-2-oxoethyl]acetamide] yielded a melting point of 290 to 292 °C. The IC50 in data set [3] (setting [4]) worked out at 31.8 ± 1.68 µM.

For `O=C(Cn1c(=O)[nH]c2ccccc2c1=O)NCC(=O)N/N=C/c1ccco1` [Compound 4d, (E)-2-(2,4-Dioxo-1,4-dihydroquinazolin-3(2H)-yl)-N-[2-(2-[furan-2-ylmethylene]hydrazineyl)-2-oxoethyl]acetamide], the IC50 in data set [3] (setting [4]) stood at 10.8 ± 0.57 µM.

Take `O=C(Cn1c(=O)[nH]c2ccccc2c1=O)NCC(=O)N/N=C1\C(=O)Nc2ccccc21` [Compound 4f, (Z)-2-[2,4-Dioxo-1,4-dihydroquinazolin-3(2H)-yl]-N-[2-oxo-2-(2-(2-oxoindolin-3-ylidene)hydrazineyl)ethyl]acetamide]: the IC50 in data set [3] (setting [4]) amounted to 44.1 ± 2.33 µM.

The compound `Cc1cc(C)n(C(=O)CNC(=O)Cn2c(=O)[nH]c3ccccc3c2=O)n1` [Compound 4g, N-[2-(3,5-Dimethyl-1H-pyrazol-1-yl)-2-oxoethyl]-2-(2,4-dioxo-1,4-dihyd-roquinazolin-3(2H)-yl)acetamide] came in with a melting point of 284 to 286 °C. This compound also had an IC50 against c-Met of 0.271 ± 0.012 µM. Further, on c-Met (conc 0.01 (unit not given)), the c-Met %inh was 20.56%. On c-Met (conc 0.1 (unit not given)), this compound gave a c-Met %inh of 34.11%. Further, the c-Met %inh at c-Met (conc 1 (unit not given)) was 65.69%. The same compound came in with a c-Met %inh on c-Met (conc 10 (unit not given)) of 85.71%. Moreover, the IC50 in data set [3] (setting [4]) turned out to be 3.7 ± 0.2 µM. Half-maximal inhibition against VEGFR-2 (IC50) required 0.103 ± 0.005 µM. Further, the VEGFR-2 %inh on VEGFR-2 (conc 0.01 (unit not given)) was 27.96%. On VEGFR-2 (conc 0.1 (unit not given)), the VEGFR-2 %inh came to 52.07%. This compound returned a VEGFR-2 %inh at VEGFR-2 (conc 1 (unit not given)) of 70.58%. At VEGFR-2 (conc 10 (unit not given)), this compound yielded a VEGFR-2 %inh of 88.15%.

Regarding `O=C(Cn1c(=O)[nH]c2ccccc2c1=O)NCc1n[nH]c(=S)o1` [Compound 4h, 2-(2,4-Dioxo-1,4-dihydroquinazolin-3(2H)-yl)-N-[(5-thioxo-4,5-dihydro-1,3,4-oxadiazol-2-yl)methyl]acetamide], the figures for the IC50 (on c-Met; in data set [3] (setting [4]); at VEGFR-2) were 0.245 ± 0.011 µM, 6.99 ± 0.37 µM and 0.297 ± 0.013 µM, respectively. Besides, the c-Met %inh is listed as 17.87% on c-Met (conc 0.01 (unit not given)), 35.84% at c-Met (conc 0.1 (unit not given)), 70.09% on c-Met (conc 1 (unit not given)) and 86.83% at c-Met (conc 10 (unit not given)). Also, the VEGFR-2 %inh on VEGFR-2 (conc 0.01 (unit not given)) was found to be 18.58%; at VEGFR-2 (conc 0.1 (unit not given)), 40.45%; on VEGFR-2 (conc 1 (unit not given)), 60.74%; on VEGFR-2 (conc 10 (unit not given)), 82.49%.

In the case of `O=C(Cn1c(=O)[nH]c2ccccc2c1=O)NCC(=O)NNC(=S)Nc1ccccc1` [Compound 4i, 2-(2,4-Dioxo-1,4-dihydroquinazolin-3(2H)-yl)-N-[2-oxo-2-(2-[phenylcar-bamothioyl]hydrazineyl)ethyl]acetamide], the melting point was in the range of 287 to 290 °C. Further, the 50% inhibitory concentration (IC50) in data set [3] (setting [4]) came out at 9.2 ± 0.49 µM.

As for `O=C(Cn1c(=O)[nH]c2ccccc2c1=O)NCc1n[nH]c(=S)n1-c1ccccc1` [Compound 4j, 2-(2,4-Dioxo-1,4-dihydroquinazolin-3(2H)-yl)-N-[(4-phenyl-5-thioxo-4,5-dihydro-1H-1,2,4-triazol-3-yl)methyl]acetamide], in data set [3] (setting [4]), the IC50 was found to be 18.9 ± 1 µM.
